Data from the OligoGym collection.
Several values for one entry are separate records, joined by “and”; a condition that tells them apart may be missing. Equal entries are not always repeated. After the bases stand the sugars from the 5' end (letter, count) and the backbone: PS all phosphorothioate, else s phosphorothioate and o phosphodiester by linkage. Methylation of C is not given here. e = 2'-O-(2-methoxyethyl) (MOE); k = constrained ethyl (cEt); d = 2'-deoxy (DNA)

Biological target: SOD1
Settings: ASO

AAAATACAGGTCATTGA (sugars e3 k2 d7 k2 e3, PS)
target mRNA inhibition (HepG2, 3 µM): 28%

AAACAGACATTTTAACTGAG (sugars e5 d10 e5, PS)
target mRNA inhibition (HepG2, 5 µM): 4%

AAACTATACAAATCTTC (sugars e2 k2 d9 k2 e2, PS)
target mRNA inhibition (HepG2, 5 µM): 55%

AAATCTTCCAAGTGATC (sugars e2 k2 d8 k2 e3, PS)
target mRNA inhibition (HepG2, 5 µM): 46%

AAGAAATTCTGACAAGT (sugars e3 k2 d7 k2 e3, PS)
target mRNA inhibition (HepG2, 3 µM): 18%

AAGTCACACAATTACAC (sugars e2 k2 d8 k2 e3, PS)
target mRNA inhibition (HepG2, 5 µM): 41%

AAGTGATCATAAATCAGTTT (sugars e5 d10 e5, PS)
target mRNA inhibition (HepG2, 4 µM): 86% | target mRNA inhibition (HepG2, 5 µM): 8% | target mRNA inhibition (HepG2, 12 µM): 96%

AAGTTTAATACCCATCT (sugars e3 k2 d7 k2 e3, PS)
target mRNA inhibition (HepG2, 3 µM): 12%

AATAAGTGCCATACAGG (sugars e2 k2 d9 k2 e2, PS)
target mRNA inhibition (HepG2, 5 µM): 36%

AATAGCCTCATAATAAG (sugars e2 k2 d9 k2 e2, PS)
target mRNA inhibition (HepG2, 5 µM): 25%

AATCTTCCAAGTGATCA (sugars e2 k2 d8 k2 e3, PS)
target mRNA inhibition (HepG2, 5 µM): 19%

AATGATGCAATGGTCTCCTG (sugars e5 d10 e5, PS)
target mRNA inhibition (HepG2, 5 µM): 0%

AATGCTTCCCCACACCT (sugars e3 k2 d7 k2 e3, PS)
target mRNA inhibition (HepG2, 3 µM): 35%

AATTCTGACAAGTTTAA (sugars e3 k2 d7 k2 e3, PS)
target mRNA inhibition (HepG2, 3 µM): 15%

ACACCTTCACTGGTCCA (sugars e3 k2 d7 k2 e3, PS)
target mRNA inhibition (HepG2, 3 µM): 20%

ACACCTTCACTGGTCCATTA (sugars e5 d10 e5, linkages s1 o3 s11 o3 s1)
target mRNA inhibition (A431, 0.12 µM): 5% | target mRNA inhibition (A431, 0.6 µM): 4% | target mRNA inhibition (A431, 3 µM): 4% | target mRNA inhibition (A431, 15 µM): 10% | target mRNA inhibition (HepG2, 2 µM): 50% and 36% and 39%

ACAGGCTTGAATGACAAAGA (sugars e5 d10 e5, PS)
target mRNA inhibition (HepG2, 5 µM): 19%

ACAGGGTTTTTATTCAC (sugars e3 k2 d7 k2 e3, PS)
target mRNA inhibition (HepG2, 3 µM): 10%

ACAGGTACTTTAAAGCA (sugars e2 k2 d8 k2 e3, PS)
target mRNA inhibition (HepG2, 5 µM): 14%

ACAGTGTTTAATGTTTA (sugars e3 k2 d7 k2 e3, linkages s1 o2 s9 o2 s2)
target mRNA inhibition (A431, 0.12 µM): 12% | target mRNA inhibition (A431, 0.6 µM): 26% | target mRNA inhibition (A431, 3 µM): 45% | target mRNA inhibition (A431, 15 µM): 47% | target mRNA inhibition (HepG2, 0.222 µM): 51% | target mRNA inhibition (HepG2, 0.667 µM): 70% | target mRNA inhibition (HepG2, 2 µM): 80% | target mRNA inhibition (HepG2, 6 µM): 74%

ACCAGTGTGCGGCCAATGAT (sugars e5 d10 e5, PS)
target mRNA inhibition (HepG2, 5 µM): 0%

ACCCATCTGTGATTTAA (sugars e2 k2 d8 k2 e3, PS)
target mRNA inhibition (HepG2, 5 µM): 33%

ACCTGCACTGGTACAGC (sugars e3 k2 d7 k2 e3, PS)
target mRNA inhibition (HepG2, 3 µM): 12%

ACTATACAAATCTTCCA (sugars e3 k2 d7 k2 e3, PS)
target mRNA inhibition (HepG2, 3 µM): 10%

ACTCATGAACATGGAATCCA (sugars e5 d10 e5, PS)
target mRNA inhibition (HepG2, 5 µM): 27% and 20%

ACTCTGAAAAAGTCACACAA (sugars e5 d10 e5, PS)
target mRNA inhibition (HepG2, 5 µM): 21%

ACTGGTACAGCCTGCTGTAT (sugars e5 d10 e5, PS)
target mRNA inhibition (HepG2, 5 µM): 22% and 28%

ACTGGTCCATTACTTTC (sugars e3 k2 d7 k2 e3, PS)
target mRNA inhibition (HepG2, 3 µM): 14%

ACTTTAAAGCAACTCTGAAA (sugars e5 d10 e5, PS)
target mRNA inhibition (HepG2, 5 µM): 0%

AGACACATCGGCCACAC (sugars e3 k2 d7 k2 e3, PS)
target mRNA inhibition (HepG2, 3 µM): 21%

AGACATTTTAACTGAGT (sugars e2 k2 d8 k2 e3, PS)
target mRNA inhibition (HepG2, 5 µM): 46%

AGATCACAGAATCTTCAATA (sugars e5 d10 e5, PS)
target mRNA inhibition (HepG2, 5 µM): 14% and 29%

AGATTACAGTGTTTAAT (sugars e2 k2 d8 k2 e3, PS)
target mRNA inhibition (HepG2, 0.1875 µM): 16% | target mRNA inhibition (HepG2, 0.75 µM): 50% | target mRNA inhibition (HepG2, 3 µM): 62% | target mRNA inhibition (HepG2, 5 µM): 68% | target mRNA inhibition (HepG2, 12 µM): 77%

AGATTACAGTGTTTAAT (sugars e2 k2 d9 k2 e2, PS)
target mRNA inhibition (HepG2, 0.1875 µM): 28% | target mRNA inhibition (HepG2, 0.75 µM): 41% | target mRNA inhibition (HepG2, 3 µM): 63% | target mRNA inhibition (HepG2, 5 µM): 63% | target mRNA inhibition (HepG2, 12 µM): 71%

AGGAGACTACGACGCAAACC (sugars e5 d10 e5, PS)
target mRNA inhibition (HepG2, 4 µM): 35%

AGGATAACAGATGAGTT (sugars e3 k2 d7 k2 e3, PS)
target mRNA inhibition (HepG2, 3 µM): 45%
